Laboratory results: article PMC4209782 (Biochemical Journal, 2014)
pKd: −log10 of the molar value. Like-named read-outs stand apart in the source and are kept apart here.

Key:
Type in all cases: binding
[1] = tested on: T1, 3×FLAG–SGK3-(1–162) R90A PX domain; experiment: ITC, SGK3 PX domain R90A
T1 construct: 3×FLAG–SGK3-(1–162) R90A PX domain (right panel); host or cells: E. coli BL21-CodonPlus (DE3)-RIL (from general methods, not tied expressly to this protein)
Experimental: (§1) ITC experiments were carried out on a Microcal VP-ITC. A series of injections of peptide were made into an isolated chamber containing the protein at a constant temperature of 30°C. Heat changes within the cell were monitored during each injection of peptide and recorded as the total heat change per second over time. A binding isotherm was then fitted to data and expressed as the heat change per mol of peptide against the peptide/protein ratio. Injectant was PtdIns and PtdIns(3)P (Echelon) dissolved in buffer (50 mM Hepes, pH 7.4, and 150 mM NaCl). […] Data were analysed using Origin 7.0 with the Microcal software patch installed. […]
(§2) Figure 5 SGK3 binds to PtdIns(3)P via its PX domain (A) ITC was performed by gradually titrating 0.5 mM PtdIns(3)P into the reaction chamber containing wild-type 3×FLAG–SGK3-(1–162) PX domain (left panel) or mutant 3×FLAG–SGK3-(1–162) R50A PX domain (middle panel) and 3×FLAG–SGK3-(1–162) R90A PX domain (right panel). […] Kd were calculated using Origin 7.0 with ITC data analysis disc program. (B) The ability of the indicated GST fusion proteins to bind various phosphoinositides was analysed. […] The membranes were washed and the PX domain protein bound to the membrane by virtue of its interaction with lipid was detected using by using HRP-conjugated anti-FLAG antibodies (SGK3 PX domain) or anti-GST (PH domains).

[2] = target: T2, 3×FLAG–SGK3-(1–162) PX domain wild-type (Homo sapiens, UniProt Q96BR1); experiment: ITC, wild-type SGK3 PX domain; details: 30°C
T2 construct: reaction chamber containing wild-type 3×FLAG–SGK3-(1–162) PX domain; host or cells: E. coli BL21-CodonPlus (DE3)-RIL (from general methods, not tied expressly to this protein)
T2 sequence (Q96BR1 1-162): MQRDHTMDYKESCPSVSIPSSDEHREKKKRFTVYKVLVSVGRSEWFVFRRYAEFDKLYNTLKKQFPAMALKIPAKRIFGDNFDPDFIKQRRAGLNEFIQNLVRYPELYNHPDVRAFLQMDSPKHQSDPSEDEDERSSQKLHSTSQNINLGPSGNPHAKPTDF
Experimental: as §1, §2

[3] = tested on: T3, 3×FLAG–SGK3-(1–162) R50A PX domain; experiment: ITC, SGK3 PX domain R50A
T3 construct: mutant 3×FLAG–SGK3-(1–162) R50A PX domain (middle panel); host or cells: E. coli BL21-CodonPlus (DE3)-RIL (from general methods, not tied expressly to this protein)
Experimental: as §1, §2

## PtdIns(3)P
[1]
  binding to PX domain with Arg90 to alanine mutation: abolished binding
[2]; read-out: Kd1
  pKd: 5.74
[2]; read-out: Kd2
  pKd: 5.28
[3]
  binding to PX domain with Arg50 to alanine mutation: abolished binding
